Experimental data from patent US6818643B1, “Neurotrophic bicyclic diamides” (Bristol-Myers Squibb Company, priority 1999, dated 2004).
Like-named read-outs stand apart in the source and are kept apart here.

Target: FKBP12 (Homo sapiens, UniProt P62942)
Assay: Fluorescence Polarization (FP) Assay of FKBP12 Binding
Details: for inhibition at 1 µM: 1 μM compound, 100 nM fluorescent ligand, 200 nM FKBP12, read-out: % FP inhibition at 1 μM; for Ki: rotamase Ki derived from FP assay
Procedure: Fluorescence Polarization (FP) Assay of FKBP12 Binding
The buffer (25 mM HEPES, 100 mM sodium chloride, pH 7.5) with pre-mixed enzyme and fluorescent ligand is distributed into wells (190 μL/well). Inhibitors are added as 10 μL of a 10% dimethylsulfoxide solution in the same buffer. FP is measured with an excitation wavelength of 485 nm and emission wavelength of 520 nm.

Sequence of FKBP12 (P62942 whole entry, species assumed): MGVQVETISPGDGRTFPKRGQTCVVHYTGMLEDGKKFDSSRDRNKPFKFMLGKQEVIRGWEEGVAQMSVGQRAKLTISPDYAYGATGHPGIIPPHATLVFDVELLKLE

COc1cc(C(=O)C(=O)N2[C@@H]3CC[C@H]2C(=O)N(CCCc2ccccc2)C3)cc(OC)c1OC [Example 1, (1S,5R)-8-(3,4,5-Trimethoxyphenyl)oxalyl-3,8-diaza-3-(3-phenylpropyl)bicyclo[3.2.1]octan-2-one]
inhibition at 1 µM (Table 1): 34%
Ki (Table 1): 699 nM

COc1ccc(CCN2CC3CCC(C2=O)N3C(=O)C(=O)c2cc(OC)c(OC)c(OC)c2)cc1OC [Example 2, (1S,5R)-8-(3,4,5-Trimethoxyphenyl)oxalyl-3,8-diaza-3-[2-(3,4-dimethoxyphenyl)ethyl]bicyclo[3.2.1]octan-2-one]
inhibition at 1 µM (Table 1): 3%

COc1ccc(CCCN2C[C@H]3CC[C@@H](C2=O)N3C(=O)C(=O)c2cc(OC)c(OC)c(OC)c2)cc1OC [Example 3, (1S,5R)-8-(3,4,5-Trimethoxyphenyl)oxalyl-3,8-diaza-3-[3-(3,4-dimethoxyphenyl)propyl]bicyclo[3.2.1]octan-2-one]
inhibition at 1 µM (Table 1): 26%
Ki (Table 1): 380 nM

COc1ccc(CCCCN2CC3CCC(C2=O)N3C(=O)C(=O)c2cc(OC)c(OC)c(OC)c2)cc1OC [Example 4, (1S,5R)-8-(3,4,5-Trimethoxyphenyl)oxalyl-3,8-diaza-3-[4-(3,4-dimethoxyphenyl)butyl]bicyclo[3.2.1]octan-2-one]
inhibition at 1 µM (Table 1): 15%

COc1cc(CCCN2C[C@H]3CC[C@@H](C2=O)N3C(=O)C(=O)c2cc(OC)c(OC)c(OC)c2)cc(OC)c1OC [Example 6, (1S,5R)-8-(3,4,5-Trimethoxyphenyl)oxalyl-3,8-diaza-3-[3-(3,4,5-trimethoxyphenyl)propyl]bicyclo[3.2.1]octan-2-one]
inhibition at 1 µM (Table 1): 47%
Ki (Table 1): 242 nM

COc1cc(C(=O)C(=O)N2C3CCC2C(=O)N(CCCCc2ccccc2)C3)cc(OC)c1OC [Example 7, (1S,5R)-8-(3,4,5-Trimethoxyphenyl)oxalyl-3,8-diaza-3-(4-phenylbutyl)bicyclo[3.2.1]octan-2-one]
inhibition at 1 µM (Table 1): 6%

COc1cc(C(=O)C(=O)N2C3CCC2C(=O)N(CCCOc2cccnc2)C3)cc(OC)c1OC [Example 8, (1S,5R)-8-(3,4,5-Trimethoxyphenyl)oxalyl-3,8-diaza-3-(3-(3-pyridyloxy)propyl)-bicyclo[3.2.1]octan-2-one]
inhibition at 1 µM (Table 1): 98%

COc1ccc(CCCC(CCCc2ccccc2)N2CC3CCC(C2=O)N3C(=O)C(=O)c2cc(OC)c(OC)c(OC)c2)cc1OC [Example 9, (1S,5R)-8-(3,4,5-Trimethoxyphenyl)oxalyl-3,8-diaza-3-[4-(3,4-dimethoxyphenyl)-1-(3-phenylpropyl)butyl]bicyclo[3.2.1]octan-2-one]
inhibition at 1 µM (Table 2): 1%

COc1cc(C(=O)C(=O)N2C3CCC2C(=O)N(CC(CCCc2ccccc2)CCCc2ccccc2)C3)cc(OC)c1OC [Example 10, (1S,5R)-8-(3,4,5-Trimethoxyphenyl)oxalyl-3,8-diaza-3-[5-phenyl-2-(3-phenyl-propyl)pentyl]bicyclo[3.2.1]-octan-2-one]
inhibition at 1 µM (Table 2): 14%

COc1cc(CCCC(CCCc2ccccc2)CN2CC3CCC(C2=O)N3C(=O)C(=O)c2cc(OC)c(OC)c(OC)c2)cc(OC)c1OC [Example 11, (1S,5R)-8-(3,4,5-Trimethoxyphenyl)oxalyl-3,8-diaza-3-[2-(3-phenylpropyl)-5-(3,4,5-trimethoxyphenyl)pentyl]bicyclo[3.2.1]octan-2-one]
inhibition at 1 µM (Table 2): 17%

COc1ccc(CCCC(CCCc2ccc(OC)c(OC)c2)CN2C[C@H]3CC[C@@H](C2=O)N3C(=O)C(=O)c2cc(OC)c(OC)c(OC)c2)cc1OC [Example 12, (1S,5R)-8-(3,4,5-Trimethoxyphenyl)oxalyl-3,8-diaza-3-[5-(3,4-dimethoxyphenyl)-2-(3-(3,4-dimethoxyphenyl)propyl)pentyl]bicyclo[3.2.1]octan-2-one]
Ki (Table 2): 47 nM

COc1ccc(CCC(Cc2ccc(OC)c(OC)c2)CN2C[C@H]3CC[C@@H](C2=O)N3C(=O)C(=O)c2cc(OC)c(OC)c(OC)c2)cc1OC (stereo partly drawn) [Example 13, (1S,5R)-8-(3,4,5-Trimethoxyphenyl)oxalyl-3,8-diaza-3-[4-(3,4-dimethoxyphenyl)-2-((3,4-dimethoxyphenyl)methyl)butyl]bicyclo[3.2.1]octan-2-one]
Ki (Table 2): 122 nM
